According to patent publication US20110263542A1, “METHODS TO TREAT PAIN USING AN ALPHA-2 ADRENERGIC AGONIST AND AN ENDOTHELIN ANTAGONIST” (ENGOGENX, priority 2008, published 2011):
Entries after “also recorded” stand apart in the source; their conditions may differ. Where a name gives a salt, the structure may show the parent alone. Read-outs that look alike come from different tables or passages of the source.

Columns and labels:
Body temperature in mice = format: in vivo; conditions: clonidine 0.3 mg/kg with 0.5% CMC or sulfisoxazole 250, 500 or 1000 mg/kg; after 3 hours; FIG. 6B
[1] = test system: patients, immediately after spinal fusion; conditions: cited from earlier work
mice = experiment: Tail-flick latency (antinociception) in mice
Method: Animals: Male Swiss Webster mice weighing 25 to 30 g (Harlan, Indianapolis, IN) were used. The animals were housed five per cage in a room with controlled ambient temperature (23±1° C.), humidity (50±10%) and twelve-hour light/dark cycle (6.00 AM to 6.00 PM). Food and water were made available ad libitu Experiments were carried out after the animals had been acclimated to this environment for at least 4 days.
Statistics: All data values are presented as mean±SEM. ANOVA followed by post-hoc test (Bonferroni's Test) were used to test differences within and between groups. A level of P<0.05 was considered significant.
Application of theiinal stimulation (focused light) to the tail of an animal provoked withdrawal of the tail by a brief vigorous movement. The reaction time of this movement was recorded as tail-flick latency by using an analgesiometer. […] A cutoff time of 10 sec was used to prevent damage to the tail. Tail flick latency values were subtracted from the basal latency and the differential values were used to calculate the area under the curve (AUC).

[2] = test system: patients undergoing cesarean delivery; conditions: epidural clonidine 75 μg; cited from earlier work
rats = conditions: for analgesic effect of agent alone (in words): clonidine 1 mg/kg ip; for effect of antagonist on clonidine induced potentiation of morphine analgesia / effect of antagonist on clonidine induced potentiation of oxycodone analgesia: idazoxan 2 mg/kg ip or yohimbine 2 mg/kg ip 15 min before clonidine 1 mg/kg ip; for effect of antagonist on clonidine induced potentiation of morphine analgesia: morphine 8 mg/kg sc
[3] = cited from earlier work
[4] = cited from earlier work; remark: listed apart in the source
[5] = test system: patients having coronary artery bypass graft surgery; conditions: cited from earlier work

Molecule: Clc1cccc(Cl)c1NC1=NCCN1 [Clonidine, N-(2,6-dichlorophenyl)-4,5-dihydro-1H-imidazol-2-amine]
- body temperature, lowest value (from 37° C.) (Body temperature in mice): approximately 32 °C
- change in mean arterial pressure ([1]; clonidine group at T11): −26+/−2%
- mean arterial pressure ([1]; clonidine group): 74+/−2 mmHg
- morphine requirement, dose for each patient ([1]; clonidine group, placebo 10.8+/−1.2): 3.8 ± 1 mg
- pain score (visual analog scale 0-100 mm) after treatment ([1]; clonidine i.v. 5 micrograms/kg 1st h then 0.3 microgram/kg/h for 11 h, decreased from 42+/−5, mean+/−standard error): 26+/−3 mm
- AUC0→240 min determined from tail flick latency (mice; Example 3, FIG. 1B: morphine 4 mg/kg s.c., clonidine 2 mg/kg i.p. 30 min before morphine or vehicle, mean±SEM, N=6): 68.4±12.3
- AUC0→240 min of tail flick latency (mice; Example 5 Study 2, FIG. 4: clonidine 2 mg/kg i.p., sulfisoxazole 1000 mg/kg oral, morphine 8 mg/kg s.c., mean±SEM, N=6): increase in AUC
- tail flick latency (in words) (mice; clonidine 0.3 mg/kg i.p. plus 0.5% CMC p.o., by 6 hours): approximately the level of vehicle treated animals
- effect on duration of analgesia produced by 2 mg of morphine [2]: doubled
- analgesic effect of agent alone (in words) (rats; BMS182874 50 μg icv): produced analgesia; also recorded: significant
- effect on morphine analgesia in rats treated with BMS182874 (rats; clonidine 0.3 and 1.0 mg/kg ip, BMS182874 50 μg icv, morphine 4 mg/kg sc): increase in morphine analgesia
- effect on oxycodone analgesia in rats treated with BMS182874 (rats; clonidine 0.3 and 1.0 mg/kg ip, BMS182874 50 μg icv, oxycodone 4 mg/kg sc): increase in oxycodone analgesia

Molecule: 4-amino-N-(3,4-dimethyloxazol-5-yl)-benzenesulfonamide [Sulfisoxazole]
- solubility (in words) [3]: highly soluble
- concentration in the cerebrospinal fluid (in words) ([4]; average, relative to blood): about a third of blood concentration
- excreted in urine by kidney ([4]; in 24 hours): 95%
- binding to plasma proteins (in words) ([4]; in vivo): extensively bound to plasma proteins

Molecule: Cc1noc(NS(=O)(=O)c2cccc3c(N(C)C)cccc23)c1C [BMS182874, 5-(dimethylamino)-N-(3,4-dimethyl-5-isoxazolyl)-1-naphthalene sulfonamide]
- analgesic effect of agent alone (in words) (rats; BMS182874 50 μg icv): did not produce any analgesic effect

Molecule: CN1CC[C@]23c4c5ccc(O)c4O[C@H]2[C@@H](O)C=C[C@H]3[C@H]1C5.O=S(=O)(O)O [Morphine, 7,8-didehydro-4,5α-epoxy-17-methylmorphinan-3,6α-diol sulfate]
- morphine dosage in the first 24 h, median (25th-75th percentiles) ([5]; i.v. PCA morphine group (control)): 37 (30.5-51) mg
- morphine dosage in the first 24 h, median (25th-75th percentiles) ([5]; intrathecal morphine 4 microg/kg group, plus i.v. PCA morphine): 40.5 (15-61.5) mg

Molecule: c1ccc2c(c1)OCC(C1=NCCN1)O2 (centres unmarked) [Idazoxan, 2-(1,4-benzodioxan-2-yl)-2-imidazoline]
- effect of antagonist on clonidine induced potentiation of morphine analgesia (rats): did not affect; also recorded: No effect
- effect of antagonist on clonidine induced potentiation of oxycodone analgesia (rats; oxycodone 4 mg/kg sc): Blocked

Molecule: COC(=O)[C@@H]1[C@H]2C[C@H]3c4[nH]c5ccccc5c4CCN3C[C@@H]2CC[C@@H]1O [Yohimbine, 17α-hydroxy-yohimban-16α-carboxylate hydrochloride]
- effect of antagonist on clonidine induced potentiation of morphine analgesia (rats; hydrochloride): Blocked
- effect of antagonist on clonidine induced potentiation of oxycodone analgesia (rats; oxycodone 4 mg/kg sc, hydrochloride): Blocked
